ChEMBL document CHEMBL4616641, “4-Hydroxy-3-methylbenzofuran-2-carbohydrazones as novel LSD1 inhibitors” (Bioorg Med Chem Lett, 2020)

Legend:
[1] = system: PC-3; experiment: Antiproliferative activity against human PC3 cells assessed as inhibition of cell growth
[2] = system: U-87 MG; experiment: Antiproliferative activity against human U87MG cells assessed as inhibition of cell growth
[3] = system: MCF7; experiment: Antiproliferative activity against human MCF7 cells assessed as inhibition of cell growth
[4] = system: PANC-1; experiment: Antiproliferative activity against human PANC1 cells assessed as inhibition of cell growth
[5] = system: MGC-803; experiment: Antiproliferative activity against human MGC803 cells assessed as inhibition of cell growth by MTT assay
[6] = system: HT-29; experiment: Antiproliferative activity against human HT-29 cells assessed as inhibition of cell growth

Row | SMILES | IC50 [1] [µM] | IC50 [5] [µM] | other results
1 | Cc1c(C(=O)N/N=C\c2ccc(F)cc2)oc2cccc(O)c12 | ≥ 40 |  | 
2 | Cc1c(C(=O)N/N=C\c2ccccc2)oc2cccc(O)c12 | 29.2 |  | 
3 | COc1ccccc1/C=N\NC(=O)c1oc2cccc(O)c2c1C | 32.7 |  | 
4 | Cc1c(C(=O)N/N=C\c2ccc(O)cc2O)oc2cccc(O)c12 | 14.8 | 7.33 | IC50 [2]: 4.39 µM; IC50 [3]: 2.08 µM; IC50 [4]: 9.77 µM; IC50 [6]: 2.88 µM
5 | Cc1c(C(=O)N/N=C\c2cccc(O)c2)oc2cccc(O)c12 | 17.6 |  | 
6 | Cc1c(C(=O)N/N=C\c2cccc(O)c2O)oc2cccc(O)c12 | 12.2 | 5.03 | 
7 | Cc1c(C(=O)N/N=C\c2c(O)cccc2F)oc2cccc(O)c12 | 8.05 | 10.8 | IC50 [2]: 9.27 µM; IC50 [3]: 1.75 µM; IC50 [4]: 8.23 µM; IC50 [6]: 2.2 µM
8 | COc1cccc(/C=N\NC(=O)c2oc3cccc(O)c3c2C)c1 | ≥ 40 |  | 
9 | Cc1c(C(=O)N/N=C\c2cccnc2)oc2cccc(O)c12 | ≥ 40 |  | 
10 | Cc1c(C(=O)N/N=C\c2cc(O)ccc2O)oc2cccc(O)c12 | 95.5 |  | 
11 | Cc1c(C(=O)N/N=C\c2ccccc2O)oc2cccc(O)c12 | 8.35 | 10.6 | 
12 | Cc1c(C(=O)N/N=C\c2ccccc2F)oc2cccc(O)c12 | ≥ 40 |  | 
13 | Cc1c(C(=O)N/N=C\c2cccc(F)c2O)oc2cccc(O)c12 | 12.7 | 8.35 | 
14 | Cc1c(C(=O)N/N=C\c2cccc(Br)c2O)oc2cccc(O)c12 | 16.6 | 14.2 | 
15 | Cc1c(C(=O)N/N=C\c2cc(Cl)cc(Cl)c2O)oc2cccc(O)c12 | 9.59 | 4.36 | 
16 | Cc1c(C(=O)N/N=C\c2ccc(O)cc2)oc2cccc(O)c12 | 21.7 |  | 
17 | Cc1c(C(=O)N/N=C\c2ccc(Br)cc2O)oc2cccc(O)c12 | 2.05 | 5.46 | 
18 | Cc1c(C(=O)N/N=C\c2ccccc2C(F)(F)F)oc2cccc(O)c12 | 26.2 |  | 
19 | Cc1c(C(=O)N/N=C\c2cc(F)ccc2O)oc2cccc(O)c12 | 3.17 | 5.23 | 
20 | Cc1ccc(O)c(/C=N\NC(=O)c2oc3cccc(O)c3c2C)c1 | 7.35 | 5.99 | 
21 | Cc1c(C(=O)N/N=C\c2ccccn2)oc2cccc(O)c12 | ≥ 40 |  | 
22 | Cc1c(C(=O)N/N=C\c2ccco2)oc2cccc(O)c12 | ≥ 40 |  | 
23 | Cc1c(C(=O)N/N=C\c2ccc(C(F)(F)F)cc2)oc2cccc(O)c12 | ≥ 40 |  | 
24 | Cc1c(C(=O)N/N=C\c2c(O)cccc2Cl)oc2cccc(O)c12 | 18.7 |  | 
25 | Cc1c(C(=O)N/N=C\c2cccs2)oc2cccc(O)c12 | 22.3 |  | 
26 | Cc1c(C(=O)N/N=C\c2cc([N+](=O)[O-])ccc2O)oc2cccc(O)c12 | 17.1 |  | 
27 | Cc1c(C(=O)N/N=C\c2ccc(O)c(O)c2O)oc2cccc(O)c12 | ≥ 40 | 18.1 | IC50 [2]: 5.96 µM; IC50 [3]: 17.1 µM; IC50 [4]: > 20 µM; IC50 [6]: > 20 µM
28 | Cc1c(C(=O)N/N=C\c2cc(Cl)ccc2O)oc2cccc(O)c12 | 3.12 | 4.16 | 
29 | Cc1c(C(=O)N/N=C\c2cccc(F)c2)oc2cccc(O)c12 | ≥ 40 |  | 
30 | Cc1c(C(=O)N/N=C\c2ccncc2)oc2cccc(O)c12 | ≥ 40 |  | 
